Assay results reported in PubChem BioAssay (NCI).
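How tested: cells in 96-well plates exposed to compound for 48 hours at five concentrations. Definition used: TGI = concentration required for complete inhibition of growth.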

Columns and labels:
Experiment in all cases: NCI anticancer screen, dose series, 48 h
786-0 renal = test system: 786-0 renal
A549 NSCLC = test system: A549 NSCLC
ACHN renal = test system: ACHN renal
BT-549 breast = test system: BT-549 breast
CAKI-1 renal = test system: CAKI-1 renal
CCRF-CEM leukemia = test system: CCRF-CEM leukemia
COLO 205 colon = test system: COLO 205 colon
DU-145 prostate = test system: DU-145 prostate
EKVX NSCLC = test system: EKVX NSCLC
HCC-2998 colon = test system: HCC-2998 colon
HCT-116 colon = test system: HCT-116 colon
HCT-15 colon = test system: HCT-15 colon
HL-60(TB) leukemia = test system: HL-60(TB) leukemia
HOP-92 NSCLC = test system: HOP-92 NSCLC
HS 578T breast = test system: HS 578T breast
HT29 colon = test system: HT29 colon
IGROV1 ovarian = test system: IGROV1 ovarian
K-562 leukemia = test system: K-562 leukemia
KM12 colon = test system: KM12 colon
LOX IMVI melanoma = test system: LOX IMVI melanoma
M14 melanoma = test system: M14 melanoma
MALME-3M melanoma = test system: MALME-3M melanoma
MCF7 breast = test system: MCF7 breast
MDA-MB-231 breast = test system: MDA-MB-231 breast
MDA-MB-435 = test system: MDA-MB-435
MDA-N = test system: MDA-N
MOLT-4 leukemia = test system: MOLT-4 leukemia
NCI-H226 lung = test system: NCI-H226 lung
NCI-H23 lung = test system: NCI-H23 lung
NCI-H460 lung = test system: NCI-H460 lung
NCI-H522 lung = test system: NCI-H522 lung
NCI/ADR-RES ovarian = test system: NCI/ADR-RES ovarian
OVCAR-3 ovarian = test system: OVCAR-3 ovarian
OVCAR-4 ovarian = test system: OVCAR-4 ovarian
OVCAR-5 ovarian = test system: OVCAR-5 ovarian
OVCAR-8 ovarian = test system: OVCAR-8 ovarian
PC-3 prostate = test system: PC-3 prostate
RPMI-8226 leukemia = test system: RPMI-8226 leukemia
RXF 393 renal = test system: RXF 393 renal
SF-295 CNS = test system: SF-295 CNS
SK-MEL-2 melanoma = test system: SK-MEL-2 melanoma
SK-MEL-28 melanoma = test system: SK-MEL-28 melanoma
SK-MEL-5 melanoma = test system: SK-MEL-5 melanoma
SK-OV-3 ovarian = test system: SK-OV-3 ovarian
SNB-19 CNS = test system: SNB-19 CNS
SNB-75 CNS = test system: SNB-75 CNS
SR leukemia = test system: SR leukemia
SW-620 colon = test system: SW-620 colon
T-47D breast = test system: T-47D breast
TK-10 renal = test system: TK-10 renal
UACC-257 melanoma = test system: UACC-257 melanoma
UACC-62 melanoma = test system: UACC-62 melanoma
UO-31 renal = test system: UO-31 renal
A498 renal = test system: A498 renal
HOP-62 NSCLC = test system: HOP-62 NSCLC
SF-268 CNS = test system: SF-268 CNS
SF-539 CNS = test system: SF-539 CNS
SN12C renal = test system: SN12C renal
U251 CNS = test system: U251 CNS

CC1=CC(O)CC(C)(C)C1/C=C/C(C)=C/C=C/C(C)=C/C=C/C=C(C)/C=C/C=C(C)/C=C/C1=C(C)CC(O)CC1(C)C (centres undefined)
TGI (786-0 renal): 36.7 µM | TGI (A549 NSCLC): > 100 µM | TGI (ACHN renal): 31.1 µM | TGI (BT-549 breast): 33.1 µM | TGI (CAKI-1 renal): 51.4 µM | TGI (CCRF-CEM leukemia): > 100 µM | TGI (COLO 205 colon): 38 µM | TGI (DU-145 prostate): > 100 µM | TGI (EKVX NSCLC): > 100 µM | TGI (HCC-2998 colon): > 100 µM | TGI (HCT-116 colon): 30 µM | TGI (HCT-15 colon): 34.4 µM | TGI (HL-60(TB) leukemia): > 100 µM | TGI (HOP-92 NSCLC): 41 µM | TGI (HS 578T breast): > 100 µM | TGI (HT29 colon): 30.3 µM | TGI (IGROV1 ovarian): 66.3 µM | TGI (K-562 leukemia): > 100 µM | TGI (KM12 colon): > 100 µM | TGI (LOX IMVI melanoma): > 100 µM | TGI (M14 melanoma): 29.8 µM | TGI (MALME-3M melanoma): 29 µM | TGI (MCF7 breast): 77.7 µM | TGI (MDA-MB-231 breast): 30.1 µM | TGI (MDA-MB-435): 33.9 µM | TGI (MDA-N): 37.8 µM | TGI (MOLT-4 leukemia): > 100 µM | TGI (NCI-H226 lung): 41.4 µM | TGI (NCI-H23 lung): 56.9 µM | TGI (NCI-H460 lung): > 100 µM | TGI (NCI-H522 lung): 30 µM | TGI (NCI/ADR-RES ovarian): 59.8 µM | TGI (OVCAR-3 ovarian): 32.8 µM | TGI (OVCAR-4 ovarian): 66.9 µM | TGI (OVCAR-5 ovarian): 78.4 µM | TGI (OVCAR-8 ovarian): 39.5 µM | TGI (PC-3 prostate): 62.6 µM | TGI (RPMI-8226 leukemia): > 100 µM | TGI (RXF 393 renal): 33.2 µM | TGI (SF-295 CNS): 58.4 µM | TGI (SK-MEL-2 melanoma): 68.8 µM | TGI (SK-MEL-28 melanoma): 31.4 µM | TGI (SK-MEL-5 melanoma): 32.7 µM | TGI (SK-OV-3 ovarian): > 100 µM | TGI (SNB-19 CNS): > 100 µM | TGI (SNB-75 CNS): > 100 µM | TGI (SR leukemia): > 100 µM | TGI (SW-620 colon): 34.8 µM | TGI (T-47D breast): 44.7 µM | TGI (TK-10 renal): > 100 µM | TGI (UACC-257 melanoma): 59.1 µM | TGI (UACC-62 melanoma): 29.8 µM | TGI (UO-31 renal): > 100 µM

CO[C@H](C)[C@](O)(C(=O)OCC1=CCN2CC[C@@H](O)[C@H]12)C(C)C
TGI (786-0 renal): > 100 µM | TGI (A498 renal): > 100 µM | TGI (A549 NSCLC): > 100 µM | TGI (ACHN renal): > 100 µM | TGI (BT-549 breast): > 100 µM | TGI (CAKI-1 renal): > 100 µM | TGI (CCRF-CEM leukemia): > 100 µM | TGI (COLO 205 colon): > 100 µM | TGI (DU-145 prostate): > 100 µM | TGI (EKVX NSCLC): > 100 µM | TGI (HCC-2998 colon): > 100 µM | TGI (HCT-116 colon): > 100 µM | TGI (HCT-15 colon): > 100 µM | TGI (HOP-62 NSCLC): > 100 µM | TGI (HOP-92 NSCLC): > 100 µM | TGI (HS 578T breast): > 100 µM | TGI (HT29 colon): > 100 µM | TGI (IGROV1 ovarian): > 100 µM | TGI (K-562 leukemia): > 100 µM | TGI (KM12 colon): > 100 µM | TGI (LOX IMVI melanoma): > 100 µM | TGI (M14 melanoma): > 100 µM | TGI (MCF7 breast): > 100 µM | TGI (MDA-MB-231 breast): > 100 µM | TGI (MDA-MB-435): > 100 µM | TGI (MDA-N): > 100 µM | TGI (MOLT-4 leukemia): > 100 µM | TGI (NCI-H226 lung): > 100 µM | TGI (NCI-H23 lung): > 100 µM | TGI (NCI-H460 lung): > 100 µM | TGI (NCI-H522 lung): > 100 µM | TGI (NCI/ADR-RES ovarian): > 100 µM | TGI (OVCAR-3 ovarian): > 100 µM | TGI (OVCAR-4 ovarian): > 100 µM | TGI (OVCAR-5 ovarian): > 100 µM | TGI (OVCAR-8 ovarian): > 100 µM | TGI (PC-3 prostate): > 100 µM | TGI (RPMI-8226 leukemia): > 100 µM | TGI (SF-268 CNS): > 100 µM | TGI (SF-295 CNS): > 100 µM | TGI (SF-539 CNS): > 100 µM | TGI (SK-MEL-2 melanoma): > 100 µM | TGI (SK-MEL-28 melanoma): > 100 µM | TGI (SK-MEL-5 melanoma): > 100 µM | TGI (SK-OV-3 ovarian): > 100 µM | TGI (SN12C renal): > 100 µM | TGI (SNB-19 CNS): > 100 µM | TGI (SNB-75 CNS): > 100 µM | TGI (SR leukemia): > 100 µM | TGI (SW-620 colon): > 100 µM | TGI (T-47D breast): > 100 µM | TGI (TK-10 renal): > 100 µM | TGI (U251 CNS): > 100 µM | TGI (UACC-257 melanoma): > 100 µM | TGI (UACC-62 melanoma): > 100 µM | TGI (UO-31 renal): > 100 µM
